Where a name gives a salt, the structure may show the parent alone.

In assay [1] the test system is farnesylation of the Ras protein in THAC line (CCL 39 cells transfected with activated Ha-Ras). Briefly: activity against cells: inhibition of farnesylation of the Ras protein in THAC cells (Western blot). In kind it is cell-based. Particulars: CCL39, 24 hours at 37° C. Here is the method:
The activity against cells can be determined in the following way:
The cell line is the THAC line (CCL 39 cells transfected with activated Ha-Ras) according to K. Seuwen et al., EMBO J., 7(1) 161-168 (1988). The cells are cultured in Petri dishes with a diameter of 6 cm containing a DMEM medium, 5% foetal calf serum and 1% G418.
After culturing for 24 hours, the culture medium is changed (with or without the serum).and the product to be studied is added in solution in dimethylformamide (DMF), in the presence or in the absence of DTT (final concentrations of 0.5% in DMF and 0.1 mM in DTT). After culturing for 24 hours at 37° C., the cells are lysed in 1 cm^3 of lysis buffer (20 mM Tris, HCl, 1% Triton X114, 5 mM MgCl2, 7 mM DTT, 150 mM NaCl, pH=7.4). The lysates are clarified by centrifuging at 4000 revolutions/minute for 10 minutes. […] The radioactivity of the bands corresponding to farnesylated Ras and to non-farnesylated Ras makes it possible to determine the percentage of inhibition of farnesylation of the Ras protein.
Background: In western blotting, separated proteins are transferred to a membrane and probed.

Assay [2] has as its target T1, human farnesyl transferase (Homo sapiens, UniProt P49354+P49356).
T1 construct: human farnesyl transferase purified from THP1 cell cultures; endogenous in cells; host or cells: THP1 cells (enzyme purified from the cultures)
Briefly: inhibition of farnesyl transferase (transfer of [3H]farnesyl from [3H]FPP to p21 H-Ras). Particulars: p21 H-Ras substrate, 20 minutes at 37° C.; 9 concentrations; read-out: Inhibitory activity IC50. The class given is biochemical. The protocol:
Farnesyl transferase activity is determined by the quantity of [^3 H]farnesyl transferred from [^3 H]farnesyl pyrophosphate [[^3 H]FPP) to the p21 H-Ras protein. The standard reaction mixture is composed, for a final volume of 60 μl, of 50 mM Tris-HCl, 5 mM MgCl2, 5 mM dithiotreitol, 0.2% octyl β-D-glucopyranoside, 200 picomol p21 H-ras, 4.5 picomol [^3 H]FPP (activity 61000 dpm/picomol).
Reaction is initiated by adding approximately 5 ng of human farnesyl transferase purified from THP1 cell cultures. After incubation for 20 minutes at 37° C. in a microtitration plate containing 96 1-cm^3 wells per plate (Titer Plate®, Beckman), the reaction is stopped by adding 0.4 cm^3 of 0.1% SDS in methanol at 0° C. The mixture is then treated with 0.4 cm^3 of 30% trichloroacetic acid (TCA) in methanol. The plates are left in ice for 1 hour. […] The membranes are dried in a microwave oven, then impregnated with scintillation medium by melting of Meltilex® (Pharmacia) under hot air, and lastly counted in cpm in a β-Plate counter® (LKB). […]
The percentage inhibition values are obtained by comparison of the tests with and without inhibitor after deduction of blanks, the IC50 values being measured on the basis of the inhibitions obtained with 9 different concentrations using Enzfitter® or Grafit® software.

On to `COC(=O)[C@H](CCSC)NC(=O)C1CCCc2c(NC[C@@H](N)CS)cccc21` (stereo partly drawn) [Example 1, trifluoroacetate of the methyl ester of N-[5-(2(R)-amino-3-mercapto-propylamino)-1,2,3,4-tetrahydronaphthyl-1(R,S)-carbonyl]-(L)-methionine], for which, in assay [1] (10 μM), the inhibition – broadly, the relative decrease from the control value, in per cent – at 10 µM was more than 10%. For the same compound, the half-inhibitory concentration (IC50) (in general, the point on the concentration scale where inhibition reaches its midpoint) in assay [2] was 15 nM.

In assay [1] (50 μM), `CSCC[C@H](NC(=O)C1CCCc2c(NC[C@@H](N)CS)cccc21)C(=O)O` (stereo partly drawn) [Example 2, trifluoroacetate of N-[5-(2(R)-amino-3-mercaptopropylamino)-1,2,3,4-tetrahydronaphthyl-1(R,S)-carbonyl]-(L)-methionine] came in with an inhibition at 50 µM of 50%. Moreover, the IC50 in assay [2] is 405 nM.
